Assay results published in paper PMC12150326 (The Journal of Organic Chemistry, 2025).
Several values for one entry are separate records, joined by “and”; a condition that tells them apart may be missing. Identical values can stand only once. Like-named read-outs stand apart in the source and are kept apart here.

How the values were obtained:
[1] = system: HT29; type: cell-based, human
How it was run: (§1)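 First, compounds went into the NCI-60 cell panel. Next, they were dosed at 0.01, 0.1, 1, 10 and 100 μM. Finally, TGI levels fed a COMPARE analysis against prior tubulin-inhibitor data.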

[2] = system: DU-145; type: cell-based, human
How it was run: (§2)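 Compounds were tested in the NCI 60-cell-line panel at five concentrations: 100 μM, 10 μM, 1 μM, 0.1 μM and 0.01 μM. For COMPARE analysis, TGI response levels were matched against those of established tubulin inhibitors previously run in the same screen.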

[3] = system: SF-539; type: cell-based, human
How it was run: as §1

[4] = system: SW-620; type: cell-based, human
How it was run: as §1

[5] = system: RXF 393; type: cell-based, human
How it was run: as §1

[6] = system: OVCAR-5; type: cell-based, human
How it was run: as §1

[7] = system: COLO 205; type: cell-based, human
How it was run: as §1

[8] = system: SNB-75; type: cell-based, human
How it was run: as §1

[9] = system: SF-268; type: cell-based, human
How it was run: as §2

[10] = system: HCT-116; type: cell-based, human
How it was run: as §1

[11] = system: KM12; type: cell-based, human; conditions: KM12
How it was run: as §2

[12] = system: PC-3; type: cell-based, human
How it was run: as §2

[13] = system: NCI-H460; type: cell-based, human
How it was run: as §1

[14] = system: XF 498; set-up: method as in NCI-60 database; conditions: XF 498 ref NCI-60 database, cited from earlier work
[15] = system: KM12; set-up: method as in NCI-60 database; conditions: cited from earlier work
[16] = system: SK-MEL-5; set-up: method as in NCI-60 database; conditions: SK-MEL-5 ref NCI-60 database, cited from earlier work
[17] = system: NCI/ADR-RES; set-up: method as in NCI-60 database; conditions: NCI/ADR-RES ref NCI-60 database; listed as 757/9; cited from earlier work
[18] = KM12 ref NCI-60 database, listed as 757/9

COc1cc(C)c(-c2ccc(OC)c(=O)cc2C)c(OC)c1OC (single isomer, unassigned) [(aS)-6]
Log10GI50 [1]: > -4.00 Molar | Log10LC50 [1]: > -4.00 Molar | Log10TGI [1]: > -4.00 Molar | Log10GI50 [2]: > -4.00 Molar | Log10LC50 [2]: > -4.00 Molar | Log10TGI [2]: > -4.00 Molar | Log10GI50 [3]: > -4.00 Molar | Log10LC50 [3]: > -4.00 Molar | Log10TGI [3]: > -4.00 Molar | Log10GI50 [4]: > -4.00 Molar | Log10LC50 [4]: > -4.00 Molar | Log10TGI [4]: > -4.00 Molar | Log10GI50 [5]: > -4.00 Molar | Log10LC50 [5]: > -4.00 Molar | Log10TGI [5]: > -4.00 Molar | Log10GI50 [6]: > -4.00 Molar | Log10LC50 [6]: > -4.00 Molar | Log10TGI [6]: > -4.00 Molar | Log10GI50 [7]: > -4.00 Molar | Log10LC50 [7]: > -4.00 Molar | Log10TGI [7]: > -4.00 Molar | Log10GI50 [8]: > -4.00 Molar | Log10LC50 [8]: > -4.00 Molar | Log10TGI [8]: > -4.00 Molar | Log10GI50 [9]: > -4.00 Molar | Log10LC50 [9]: > -4.00 Molar | Log10TGI [9]: > -4.00 Molar | Log10GI50 [10]: > -4.00 Molar | Log10LC50 [10]: > -4.00 Molar | Log10TGI [10]: > -4.00 Molar | Log10GI50 [11]: > -4.00 Molar | Log10LC50 [11]: > -4.00 Molar | Log10TGI [11]: > -4.00 Molar | Log10GI50 [12]: > -4.00 Molar | Log10LC50 [12]: > -4.00 Molar | Log10TGI [12]: > -4.00 Molar | Log10GI50 [13]: > -4.00 Molar | Log10LC50 [13]: > -4.00 Molar | Log10TGI [13]: > -4.00 Molar

COc1cc(C)c(-c2ccc(=O)c(OC)cc2C)c(OC)c1OC (single isomer, unassigned) [(aS)-iso-6]
Log10GI50 [1]: -4.60 Molar | Log10LC50 [1]: > -4.00 Molar | Log10TGI [1]: -4.03 Molar | GI50 ([1]; Homo sapiens, HT-29): 25.1 µM | Log10GI50 ([1]; […]): -4.6 Molar | Log10GI50 [3]: -4.59 Molar | Log10LC50 [3]: > -4.00 Molar | Log10TGI [3]: > -4.00 Molar | GI50 ([3]; Homo sapiens): 29.5 µM | Log10GI50 ([3]; […]): -4.53 Molar | Log10GI50 [4]: -4.55 Molar | Log10LC50 [4]: > -4.00 Molar | Log10TGI [4]: > -4.00 Molar | GI50 ([4]; Homo sapiens): 30.9 µM | Log10GI50 ([4]; […]): -4.51 Molar | Log10GI50 [5]: -4.68 Molar | Log10LC50 [5]: > -4.00 Molar | Log10TGI [5]: -4.12 Molar | GI50 ([5]; Homo sapiens): 20.9 µM | Log10GI50 ([5]; […]): -4.68 Molar | Log10GI50 [6]: -4.38 Molar | Log10LC50 [6]: > -4.00 Molar | Log10TGI [6]: > -4.00 Molar | GI50 ([6]; Homo sapiens): 41.7 µM | Log10GI50 ([6]; […]): -4.38 Molar | Log10GI50 [7]: -4.66 Molar | Log10LC50 [7]: > -4.00 Molar | Log10TGI [7]: -4.23 Molar | GI50 ([7]; Homo sapiens): 21.9 µM | Log10GI50 ([7]; […]): -4.66 Molar | Log10GI50 [8]: -5.27 Molar | Log10LC50 [8]: > -4.00 Molar | Log10TGI [8]: -4.36 Molar | GI50 ([8]; Homo sapiens): 30.9 µM | Log10GI50 ([8]; […]): -4.51 Molar | Log10GI50 [10]: -4.60 Molar | Log10LC50 [10]: > -4.00 Molar | Log10TGI [10]: > -4.00 Molar | GI50 ([10]; Homo sapiens): 25.1 µM | Log10GI50 ([10]; […]): -4.6 Molar | Log10GI50 [12]: -4.50 Molar | Log10LC50 [12]: > -4.00 Molar | Log10TGI [12]: > -4.00 Molar | GI50 ([12]; Homo sapiens): 31.6 µM | Log10GI50 ([12]; […]): -4.5 Molar | Log10GI50 [13]: -4.50 Molar | Log10LC50 [13]: > -4.00 Molar | Log10TGI [13]: > -4.00 Molar | GI50 ([13]; Homo sapiens): 31.6 µM | Log10GI50 ([13]; […]): -4.5 Molar

COc1cc2c(c(OC)c1OC)-c1ccc(OC)c(=O)cc1[C@@H](NC(C)=O)CC2 [Colchicine, (−)-Colchicine]
Log10LC50 [14]: > -4.00 Molar | Log10TGI ([14]; listed as 757/1): -4.41 Molar | GI50 ([15]; KM12 (printed KM29) ref NCI-60 database): 0.04 µM | Log10GI50 ([15]; KM12 ref NCI-60 database): -7.35 Molar | Log10GI50 ([15]; KM12 ref NCI-60 database, listed as 757/1): -7.65 Molar | Log10GI50 [15, 18]: -7.67 Molar | Log10LC50 [15, 18]: -7.04 Molar | Log10TGI [15, 18]: -7.95 Molar | Log10LC50 ([15]; KM12 ref NCI-60 database, listed as 757/21): > -4.00 Molar | GI50 [16]: < 0.01 µM | Log10GI50 [16]: < -8 Molar | Log10GI50 ([16]; listed as 757/1): -7.61 Molar | Log10TGI ([16]; listed as 757/9): -7.58 Molar | Log10GI50 ([16]; listed as 757/21): < -8.00 Molar | Log10LC50 ([16]; listed as 757/21): > -4.00 Molar | Log10GI50 [17]: -6.59 Molar and -6.31 Molar
